Reference: patent US11834414B2, “1-methyl-4-[(4-phenylphenyl)sulfonylmethyl]cyclohexyanol and 1-methyl-4-[[4-(2-pyridyl)phenyl]sulfonylmethyl]cyclohexanol compounds and their therapeutic use” (Modern Biosciences Limited, priority 2018, dated 2023)
“Also recorded” adds a separate entry of the source.

Experiments:
[1] = test system: human hepatocytes; experiment: Human hepatocyte stability; format: in vitro ADME; conditions: hepatocyte stability, compared to the reference compounds
Outline: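 Compounds (1 μM final, 0.1% DMSO, 0.9% acetonitrile) were incubated in duplicate with pooled rat or human hepatocytes at 37° C, sampled at 0–60 min and quenched with methanol. Remaining parent was measured by LC-MS/MS. Elimination rate constant came from the ln(concentration)–time slope, giving t1/2 and CLint scaled to hepatocyte concentration.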

[2] = Metabolite identification in rats; format: in vivo, Han Wistar rats; conditions: rat, 1 mg/kg intravenous, up to 24 hours
Description: The formation of metabolites in rats was assessed to determine the propensity of the compounds to form a biaryl metabolite.
The corresponding sulfonamide compounds (for example, reference compound HMC-C-01-A) give rise to a sulphonamide metabolite which is persistent and has a long half-life. In addition, the biaryl sulphonamide metabolite acts as an inducer of metabolism in rats, which may complicate the assessment of toxicity in rodents. Therefore, the lower the propensity to form a biaryl sulphonamide metabolite, the greater the potential suitability of the compound for development for human use.
Plasma samples from Han Wistar rats, aged 8-12 weeks, were collected from animals dosed with test compound. Test compounds at a dose of 1 mg/kg were administered intravenously as a solution in 5% NMP, 5% Solutol HS, and 90% normal saline. Animals were given free access to food throughout the study. Blood samples were taken under light isoflurane anaesthesia at 12 time points following an intravenous dose (0.033, 0.1, 0.167, 0.25, 0.5, 1, 2, 4, 6, 8, 12, and 24 hours). The blood samples were collected from a set of three rats at each time point in labelled micro centrifuge tube containing K2EDTA as anticoagulant. Plasma samples were separated by centrifugation of whole blood.
All samples were processed for analysis by protein precipitation using acetonitrile and analysed with a fit-for-purpose LC-MS/MS method.
At the completion of the study, the results were expressed as detection of the metabolite and time course of formation.

Compound | metabolic stability (in words) [1] | formation of biaryl sulphonamide metabolite (MET-001) in plasma [2]
C[C@]1(O)CC[C@@H](CS(=O)(=O)c2ccc(-c3ncc(F)cc3F)c(F)c2)CC1 [CHMSA-03-A, cis-4-(((4-(3,5-difluoropyridin-2-yl)-3-fluorophenyl)sulfonyl)methyl)-1-methylcyclohexan-1-ol] | exceptionally good stability | –
C[C@]1(O)CC[C@@H](CS(=O)(=O)c2ccc(-c3ccc(C#N)cc3F)cc2C(F)(F)F)CC1 [CHMSA-02-A, 2-fluoro-4′-(((cis-4-hydroxy-4-methylcyclohexyl)methyl)sulfonyl)-3′-(trifluoromethyl)-[1,1′-biphenyl]-4-carbonitrile] | exceptionally good stability | –
C[C@]1(O)CC[C@H](NS(=O)(=O)c2ccc(-c3ccc(Cl)cc3C#N)cc2)CC1 [HMC-C-01-A, reference compound] | – | formed in large quantities and accumulated over time; also recorded: in large quantities (which accumulated over time)
